Test results from patent publication US9320272B2, “Microbial composition” (Rohm and Haas Company, priority 2011, dated 2016).
Values joined by “and” are separate entries in the source; they are usually repeats but may differ in a detail not shown here. Identical values can stand only once.

Assays:
[1] = system: Escherichia coli (E. coli - ATCC #10536); test: Synergy test: high resolution MBC microtiter plate assay in phosphate buffer containing 35% dipropylene glycol, 15 seconds contact; assay type: cell-based; settings: for QB: concentration of second component (B) acting alone which produced an end point (MBC of Compound B); Qb with Qa = 0 / QA: concentration of first component (A) acting alone which produced an end point (MBC of Compound A); Qa with Qb = 0: E. coli 10536, complete kill in 15 seconds, phosphate buffer with 35% DPG; for SI (Synergy Index = Qa/QA + Qb/QB): E. coli 10536, less than one = synergy, one = additivity, greater than one = antagonism
From the text: One measure of synergy is the industrially accepted method described by Kull, F. C.; Eisman, P. C.; Sylwestrowicz, M. D, and Mayer, R. L., in Applied Microbiology 9:538-541 (1961), using the ratio determined by the formula: Qa/QA+Qb/QB=Synergy Index (“SI”) wherein; QA=concentration of compound A (first component) in percent, acting alone, which produced an end point (MBC of Compound A), Qa=concentration of compound A in percent, in the mixture, which produced an end point. QB=concentration of compound B (second component) in percent, acting alone, which produced an end point (MBC of Compound B). Qb=concentration of compound B in percent, in the mixture, which produced an end point.
When the sum of Qa/QA and Qb/QB is greater than one, antagonism is indicated. […] The lower the SI, the greater is the synergy shown by that particular mixture. The minimum biocidal concentration (MBC) of a microbicide is the lowest concentration tested under a specific set of conditions that provides complete kill of the tested microorganisms.
Synergy tests were conducted using standard microliter plate assays with phosphate buffer containing 35% dipropylene glycol (DPG). In this method, a wide range of combinations of chemicals was tested by conducting high resolution. MBC assays of Component (A) in the presence of various concentrations of Component (B). High resolution MBCs were determined by adding varying amounts of microbicide to one column of a microliter plate and doing subsequent […] dilutions using an automated liquid handling system to obtain a series of closely spaced endpoints. The MBC plate was inoculated one column at a time with the test microorganism. An aliquot of the inoculated well was transferred at 15 seconds to a plate containing a neutralizing agent (EVE Neutralizing Broth), mixed and held for 5 minutes before being transferred to a growth plate containing trypticase soy broth (TSB). The TSB plate was incubated at 37° C. and read for the presence/absence of growth at 24 hours. The lowest level tested that provided complete kill (as evidenced by no growth in the microtitre plate) of the test organisms in 15 seconds is the minimum biocidal concentration (MBC).
The synergy of the combinations of the present invention was determined against a bacterium, Escherichia coli (E. coli—ATCC #10536), at a concentration of approximately 1×10^8 bacteria per mL. This microorganism is representative of natural contaminants in many consumer and industrial applications.

[2] = system: Escherichia coli (E. coli - ATCC #10536); test: Automated assessment of efficacy in surfactant base (2.85% sodium cocoyl glycinate + 1.85% sodium lauroamphoacetate, pH 10), 15 seconds exposure; assay type: cell-based; settings: for MBC (% w/v): in 2.85% sodium cocoyl glycinate + 1.85% sodium lauroamphoacetate solution at pH 10, E. coli, 15 seconds exposure; for Δ OD 450 nm = OD450 (time zero) − OD450 (time = 16 hours), Mean / Δ OD 590 nm OD590 (time = 16 hours) − OD590 (time zero), Mean / No. of replicates showing growth (out of 4): model surfactant solution pH 10, 15 s exposure; for Δ OD 450 nm = OD450 (time zero) − OD450 (time = 16 hours), Mean / Δ OD 590 nm OD590 (time = 16 hours) − OD590 (time zero), Mean: 4 replicates
Procedure: In these examples, the efficacy of combinations of actives were tested in a surfactant cleansing formulation comprising 2.85% sodium cocoyl glycinate and 1.85% sodium lauroamphoacetate.
This corresponds to a 50% in use dilution with water of a neat formulation containing 5.7% cocoyl glycinate and 3.7% sodium lauroamphoacetate during hand washing.
Solutions were prepared such that the concentrations of the surfactant components and test actives were 1.1× the final desired concentration in order to allow for dilution with the bacterial inoculum in the test. The solutions were manually adjusted to pH 10.0 by dropwise addition of sodium hydroxide solution, as measured with a pH meter at ambient temperature.
The efficacy of the combinations of the present invention was determined against Escherichia coli (E. coli—ATCC #10536), at a concentration of approximately 1×10^8 bacteria per mL.
Tests were conducted using standard microliter plate assays using an automated liquid handling system. 270 μl of the surfactant test solution was pipetted into each well of the microtitre plate and 30 μl of the bacterial suspension was then added. After exactly 15 seconds of bacterial exposure, a 30 μl volume of bacterial cells was withdrawn and transferred to 270 μl of D/E quench solution. After 5 minutes in the D/E quench, the optical density (OD) was measured for each plate in turn at two specific wavelengths (450 nm and 590 nm). These provide a dual check of antimicrobial activity, as the OD450 reading is specific for the yellow colour of D/E quench when bacterial growth is observed, whereas OD590 is specific for the initial purple colour of the D/E quench which is retained if no bacterial growth is observed. After the time zero OD measurements, plates were then incubated at 37° C. overnight (16 hours) before repeating the OD measurements. Delta CD values were calculated by subtracting […] the initial value at time zero. Bacterial growth is observed as an increase in OD450 and a decrease in ΔOD590. To identify antibacterially efficacious systems (those preventing appreciable bacterial growth after incubation), the following threshold changes in OD readings have been adopted: if (1), OD450 increases by less than 0.2 absorbance unit on incubation and (2), OD590 decreases by less than 0.35 unit on incubation. Conversely, where OD450 increases by more than 0.2 AU and OD590 decreases by more than 0.35 unit after incubation, corresponding to a colour shift from purple to yellow, the test system allows bacterial growth and is not deemed efficacious. Four replicate measurements in the same plate have been made for each test system. The number of replicate wells showing either bacterial growth or no growth is also readily assessed by eye by following the colour change.
Dose responses for individual components and binary mixtures of actives at a fixed concentration ratio were generated by sequential dilution of liquors with further surfactant solution to obtain a series of endpoints.
In some selected cases, the combinations were also tested at the weight ratio 1.1.

Structure (SMILES)	SI (Synergy Index = Qa/QA + Qb/QB) [1]	MBC (% w/v) [2]	Δ OD 450 nm = OD450 (time zero) − OD450 (time = 16 hours), Mean ([2]; single active at 0.2% w/v)	Δ OD 590 nm OD590 (time = 16 hours) − OD590 (time zero), Mean ([2]; single active at 0.2% w/v)	QA: concentration of first component (A) acting alone which produced an end point (MBC of Compound A); Qa with Qb = 0 [1]	No. of replicates showing growth (out of 4) ([2]; single active at […] w/v)	Δ OD 590 nm OD590 (time = 16 hours) − OD590 (time zero), Mean ([2]; single active at […] w/v)	other results
C=CC(C)(O)CCC=C(C)C (racemic) [3,7-dimethylocta-1,6-dien-3-ol]	1.0	>0.5 % w/v	−0.53	0.60	–	–	–	QB: concentration of second component (B) acting alone which produced an end point (MBC of Compound B); Qb with Qa = 0 [1]: 0.5 weight %; Δ OD 450 nm = OD450 (time zero) − OD450 (time = 16 hours), Mean ([2]; single active at 0.5% w/v): −0.30; Δ OD 590 nm OD590 (time = 16 hours) − OD590 (time zero), Mean ([2]; single active at 0.5% w/v): 0.50
Oc1ccccc1C1CCCC1 [2-cyclopentylphenol]	1.00	>0.2 % w/v	–	–	0.2 weight % and 0.6 weight % and 0.3 weight %	–	–	–
Oc1ccccc1Cc1ccccc1 [2-hydroxydiphenylmethane]	1.00	>0.2 % w/v	−0.51	0.63	0.8 weight % and 1.0 weight % and 0.6 weight %	4	0.64	No. of replicates showing growth (out of 4) ([2]; single active at 0.1% w/v): 4; Δ OD 450 nm = OD450 (time zero) − OD450 (time = 16 hours), Mean ([2]; single active at 0.1% w/v): −0.51; Δ OD 590 nm OD590 (time = 16 hours) − OD590 (time zero), Mean ([2]; single active at 0.1% w/v): 0.62; No. of replicates showing growth (out of 4) ([2]; single active at 0.2% w/v): 4; Δ OD 450 nm = OD450 (time zero) − OD450 (time = 16 hours), Mean ([2]; single active at […] w/v): −0.49
Cc1ccc(C(C)C)c(O)c1O [3-isopropyl-6-methylbenzene-1,2-diol]	1.00	–	–	–	0.8 weight % and 1.0 weight %	–	–	–
Cc1cc(O)c(C(C)C)cc1Cl [4-chloro-2-isopropyl-5-methylphenol, reference compound]	–	>0.2 % w/v	–	–	–	–	–	–
Cc1cc(O)cc(C)c1Cl [4-chloro-3,5-dimethylphenol]	1.00	>0.2 % w/v	–	–	0.6 weight % and 0.3 weight %	–	–	–
Oc1ccc(C2CCCC2)cc1 [4-cyclopentylphenol]	1.00	>0.2 % w/v	–	–	0.2 weight %	–	–	–
Oc1ccc(Cc2ccccc2)cc1 [4-hydroxydiphenylmethane]	1.00	>0.2 % w/v	−0.52	0.61	0.6 weight % and 0.5 weight %	4	0.54	No. of replicates showing growth (out of 4) ([2]; single active at 0.1% w/v): 4; Δ OD 450 nm = OD450 (time zero) − OD450 (time = 16 hours), Mean ([2]; single active at 0.1% w/v): −0.58; Δ OD 590 nm OD590 (time = 16 hours) − OD590 (time zero), Mean ([2]; single active at 0.1% w/v): 0.52; No. of replicates showing growth (out of 4) ([2]; single active at 0.2% w/v): 4; Δ OD 450 nm = OD450 (time zero) − OD450 (time = 16 hours), Mean ([2]; single active at […] w/v): −0.55
CC(C)(C)c1ccc(O)c(O)c1 [4-tert-butylbenzene-1,2-diol]	1.00	–	–	–	0.8 weight % and 1.0 weight %	–	–	–
Oc1cccc2c1CCCC2 [5,6,7,8-tetrahydronaphthalen-1-ol]	1.00	>0.2 % w/v	–	–	0.6 weight % and 0.5 weight %	–	–	–
Oc1ccc2c(c1)CCCC2 [5,6,7,8-tetrahydronaphthalen-2-ol]	1.00	>0.2 % w/v	–	–	0.6 weight % and 0.3 weight % and 0.5 weight %	4	0.30	Δ OD 450 nm = OD450 (time zero) − OD450 (time = 16 hours), Mean ([2]; single active at […] w/v): −1.59
CC(C)=CCC/C(C)=C/CO [(E)-3,7-dimethylocta-2,6-dien-1-ol]	–	>0.5 % w/v	–	–	–	4	–	QB: concentration of second component (B) acting alone which produced an end point (MBC of Compound B); Qb with Qa = 0 [1]: 0.3 weight % and 0.2 weight %; No. of replicates showing growth (out of 4) ([2]; single active at 0.3% w/v): 4; Δ OD 450 nm = OD450 (time zero) − OD450 (time = 16 hours), Mean ([2]; single active at 0.3% w/v): −0.51; Δ OD 590 nm OD590 (time = 16 hours) − OD590 (time zero), Mean ([2]; single active at 0.3% w/v): 0.59; No. of replicates showing growth (out of 4) ([2]; single active at 0.5% w/v): 4; Δ OD 450 nm = OD450 (time zero) − OD450 (time = 16 hours), Mean ([2]; single active at 0.5% w/v): −0.45; Δ OD 590 nm OD590 (time = 16 hours) − OD590 (time zero), Mean ([2]; single active at 0.5% w/v): 0.62
CC(C)=CCC/C(C)=C\CO [cis-3,7-dimethyl-2,6-octadien-1-ol]	–	>0.5 % w/v	−0.53	0.60	–	4	0.61	QB: concentration of second component (B) acting alone which produced an end point (MBC of Compound B); Qb with Qa = 0 [1]: 0.5 weight % and 0.25 weight %; Δ OD 450 nm = OD450 (time zero) − OD450 (time = 16 hours), Mean ([2]; single active at 0.5% w/v): −0.14; Δ OD 590 nm OD590 (time = 16 hours) − OD590 (time zero), Mean ([2]; single active at 0.5% w/v): 0.40
